Data reported in US20260167972A1, “AMINO ACID DERIVATIVES AS NOVEL DELIVERY AGENTS FOR FUNCTIONAL DELIVERY OF OLIGONUCLEOTIDES” (University of Rochester, priority 2022, published 2026).
“Also recorded” adds a separate entry of the source.

Experiments:
[1] = Dynamic light scattering of N-X-Phe-DAP/siRNA nanoparticles; type: physicochemical; details: for Diameter (nm), DLS: N-X-Phe-DAP/siRNA nanoparticles, 5 μM derivative, 30 nM siRNA, ± standard deviation
Experimental: (§1) Each N-X-Phe-DAP derivative (100 μM) was mixed with siRNA (600 nM) in H2O for 30 minutes, followed by dilution of this mixture into DMEM cell culture media to final concentrations of 5 μM N-X-Phe-DAP derivative and 30 nM siRNA. Dynamic light scattering (DLS) and transmission electron microscopy (TEM) were utilized to analyze the physical characteristics of the resulting N-X-Phe-DAP/siRNA nanoparticles (Table 2, FIG. 4). […] Average diameter (nm), determined by dynamic light scattering (DLS) and TEM imaging, is reported as the average of […] with the error reported as the standard deviation of the mean. Binding affinity (Kd) of each agent to siRNA was determined by a slot blot filtration assay with values reported as the average of three measurements and error reported as the standard deviation of the mean. […] (B) Diameter (nm) determined by TEM (n=9, ***p≤0.001 ****p≤0.0001).
Dynamic Light Scattering: N-X-Phe-DAP derivatives (100 μM) were complexed with siRNA (600 nM) in Ultrapure™ DNase/RNase-Free Distilled Water (Invitrogen 10977015) and allowed to incubate for 30 minutes at room temperature. These solutions were then diluted into water to give final concentrations of 5 μM Phe derivative and 30 nM siRNA. Dynamic light scattering measurements were taken using a DynaPro Plate Reader II. Diameter is reported as an average of 10 measurements using Dynamics software.

[2] = test system: A549 lung adenocarcinoma cells; assay: Cellular uptake of FITC-siRNA by fluorescence microscopy; type: cell-based, human; details: A549 cells dosed 4 hours; green fluorescence, FIG. 5
Experimental: The N-X-Phe-DAP derivatives facilitate functional delivery of siRNA. N-X-Phe-DAP derivatives (100 μM) were incubated with a fluorescently labelled siRNA (FITC-siRNA, 600 nM) for 30 minutes in the dark followed by dilution into DMEM. A549 lung carcinoma cells were then dosed with these solutions for 4 hours, after which N-X-Phe-DAP/siRNA cellular uptake was visualized by confocal microscopy to visual FITC-siRNA in fixed cells in which the nuclei had been stained with DAPI nuclear stain (FIG. 5). Translocation of siRNA with the N-X-Phe-DAP derivatives was compared with Lipofectamine by observing the presence of green fluorescence (FITC-siRNA) in the images.
Sample Preparation for Cell-Based Experiments: For delivery analysis and functional knockdown, N-X-Phe-DAP derivatives (10 μL, 1 mM) or Lipofectamine 3000 (6 μL) was mixed with TTF-1 siRNA (Santa Cruz Biotechnology sc-36756, 6 μL, 10 μM) in Ultrapure™ DNase/RNase-Free Distilled Water (Invitrogen 10977015) to give a final volume of 100 μL. These mixtures were incubated for 30 minutes at room temperature, followed by dilution into 1×DMEM (Gibco 11965092, 1.9 mL). For cytotoxicity assays, N-X-Phe-DAP derivatives (10 μL, 1 mM) were diluted into 1×DMEM (Gibco 11965092, 1.9 mL).
N-X-Phe-DAP-siRNA Cellular Delivery Analysis A549 lung adenocarcinoma cells (ATCC #) were seeded at a density of 1.05×10^5 cells/well in a glass bottom 24-well plate (500 μL) and grown to 70-90% confluency. Cells were washed with 1× phosphate buffered saline (PBS, Gibco 14190144), samples were added (500 μL/well), and incubated for 4 h at 37° C., 5% C02. After 4 h, media was removed, cells were washed with 1×PBS, and fixed with 4% paraformaldehyde solution. After 10 min, cells were washed twice with 1×PBS and incubated with DAPI stain (1 μg/mL) in the dark. After 5 min, cells were washed three times with 1×DPBS and stored at −20° C. until imaging. A Nikon T1 epifluorescence microscope was used for fluorescent imaging. Images were collected at 40× magnification using NIS-Elements Viewer (Nikon) software. All images were processed in Adobe Photoshop by selecting “image” then “Adjustments” then “Levels”. In the pop-up window, “Channel” was selected followed by “Green” and Output levels were adjusted with an upper limit of 200. In the sample pop-up window under “Options” the “Enhance Per Channel Contrast” was selected under algorithms.

[3] = Transmission electron microscopy of N-X-Phe-DAP/siRNA nanoparticles; type: physicochemical; details: for Diameter (nm), TEM: N-X-Phe-DAP/siRNA nanoparticles, 5 μM derivative, 30 nM siRNA, ± standard deviation; for morphology of siRNA nanoparticles/aggregates: TEM images, FIG. 4
Experimental: as §1
Transmission Electron Microscopy: N-X-Phe-DAP derivatives (100 μM) were complexed with siRNA (600 nM) in Ultrapure™ DNase/RNase-Free Distilled Water (Invitrogen 10977015) and allowed to incubate for 30 minutes at room temperature. These solutions were then diluted into water to give final concentrations of 5 μM Phe derivative and 30 nM siRNA. Samples (5 μL) were spotted on 200 mesh carbon coated copper grids and excess solvent was removed by capillary action with filter paper after 60 seconds. Grids were then stained with uranyl acetate (5 μL) for 60 seconds by excess solvent was removed by capillary action with filter paper. Grids were left to dry for 10 minutes. Images were taken using a Hitachi 7650 transmission electron microscope with an accelerating voltage of 80 kV.

[4] = test system: cells; assay: Delivery of fluorescent protein encoding mRNA and plasmid DNA into cells (FIG. 50); type: cell-based; details: 14 nM 1-Nap-Phe-DAP, 24 hours
Experimental: FIG. 50 has images of cells treated with a mixture of 1-Nap-Phe-DAP with fluorescent protein encoding mRNA (panel A) and plasmid DNA (panel B). […] In this example, 14 nM of the 1-Nap-Phe-DAP was used with 1 microgram of mRNA or pDNA for 24 hours, after which the cells were images.

| SMILES | Diameter (nm), DLS [1] | FITC-siRNA delivery compared with Lipofectamine [2] | Diameter (nm), TEM [3] | morphology of siRNA nanoparticles/aggregates [3] | diameter of siRNA nanoparticles by DLS and TEM measurements [1] | delivery of fluorescent protein encoding mRNA into cells ([4]; 1 microgram mRNA, FIG. 50 panel A) | delivery of plasmid DNA into cells ([4]; 1 microgram pDNA, FIG. 50 panel B) |
| --- | --- | --- | --- | --- | --- | --- | --- |
| NCCCNC(=O)[C@H](Cc1ccccc1)NC(=O)CCCc1ccc2ccc3cccc4ccc1c2c34 [Pyr-Phe-DAP] | 105 ± 8 nm | improved siRNA delivery | 50 ± 5.0 nm | mixtures of spherical particles and one-dimensional fibril-like structures; also recorded: dominated by fibril-like structures with some evidence of spherical nanoparticles |  |  |  |
| CCCCCCC(=O)N[C@@H](Cc1ccccc1)C(=O)NCCCN [Hex-Phe-DAP] | 50 ± 6 nm | improved siRNA delivery | 81 ± 10 nm | mixtures of spherical particles and one-dimensional fibril-like structures; also recorded: primarily exhibiting fibril and sheet-like structures that aggregate into bundles |  |  |  |
| NCCCNC(=O)[C@H](Cc1c(F)c(F)c(F)c(F)c1F)NC(=O)OCC1c2ccccc2-c2ccccc21 [Fmoc-F5-Phe-DAP] | 202 ± 15 nm | improved siRNA delivery | 140 ± 12 nm | mixtures of spherical particles and one-dimensional fibril-like structures |  |  |  |
| NCCCNC(=O)[C@H](Cc1cccc(F)c1)NC(=O)OCC1c2ccccc2-c2ccccc21 [Fmoc-3F-Phe-DAP] | 228 ± 18 nm | on par with Lipofectamine | 170 ± 8 nm | mixtures of spherical particles and one-dimensional fibril-like structures |  |  |  |
| NCCCNC(=O)[C@H](Cc1ccccc1)NC(=O)OCc1ccccc1 [Cbz-Phe-DAP] | 94 ± 14 nm | improved siRNA delivery | 93 ± 9 nm | smaller spheres | ~100 nm |  |  |
| NCCCNC(=O)[C@H](Cc1ccccc1)NC(=O)Cc1cccc2ccccc12 [1-Nap-Phe-DAP] | 221 ± 26 nm | improved siRNA delivery | 211 ± 17 nm | spherical micelle-like structures |  | fluorescence visible in the cytosol | fluorescence visible in the cytosol |
| NCCCNC(=O)[C@H](Cc1ccccc1)NC(=O)CC1c2ccccc2-c2ccccc21 [Fm-Phe-DAP] | 139 ± 14 nm | on par with Lipofectamine | 163 ± 10 nm | spherical micelle-like structures |  |  |  |
| NCCCNC(=O)[C@H](Cc1ccccc1)NC(=O)C1CCCCC1 [Cyc-Phe-DAP] | 125 ± 74 nm | on par with Lipofectamine | 71 ± 2 nm | smaller spheres | ~100 nm |  |  |
| NCCCNC(=O)[C@H](Cc1ccccc1)NC(=O)Cc1ccc2ccccc2c1 [2-Nap-Phe-DAP] | 416 ± 33 nm | on par with Lipofectamine | 450 ± 27 nm | spherical micelle-like structures |  |  |  |
| NCCCNC(=O)[C@H](Cc1ccccc1)NC(=O)OCC1c2ccccc2-c2ccccc21 [Fmoc-Phe-DAP] | 156 ± 13 nm | improved siRNA delivery | 136 ± 7 nm | spherical micelle-like structures |  |  |  |
